{"source": "patent EP3238720A1", "about": "“ANTI-METHANOGENIC COMPOSITIONS AND USES THEREOF” (DSM IP Assets B.V., priority 2016, dated 2017)", "key": {"MCR (MCR-I) [1]": {"target": "T1, MCR (MCR-I) (Methanothermobacter marburgensis, UniProt P11558+P11560+P11562)", "T1 sequence (P11558 2-550 limits assumed)": "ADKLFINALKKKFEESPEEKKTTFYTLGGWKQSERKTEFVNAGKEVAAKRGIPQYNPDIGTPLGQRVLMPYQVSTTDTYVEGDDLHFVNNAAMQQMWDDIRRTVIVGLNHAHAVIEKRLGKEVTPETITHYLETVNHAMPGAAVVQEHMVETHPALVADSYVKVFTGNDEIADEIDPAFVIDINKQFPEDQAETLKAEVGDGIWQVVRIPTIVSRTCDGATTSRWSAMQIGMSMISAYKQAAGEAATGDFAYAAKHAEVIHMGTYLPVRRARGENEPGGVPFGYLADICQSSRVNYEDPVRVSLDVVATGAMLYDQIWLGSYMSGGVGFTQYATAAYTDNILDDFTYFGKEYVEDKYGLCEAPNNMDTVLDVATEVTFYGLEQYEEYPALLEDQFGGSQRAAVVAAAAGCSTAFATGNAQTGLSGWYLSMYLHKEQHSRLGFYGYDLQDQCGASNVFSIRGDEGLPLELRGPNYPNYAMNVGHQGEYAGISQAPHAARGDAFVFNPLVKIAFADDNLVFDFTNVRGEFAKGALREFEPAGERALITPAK", "T1 sequence (P11560 2-443 limits assumed)": "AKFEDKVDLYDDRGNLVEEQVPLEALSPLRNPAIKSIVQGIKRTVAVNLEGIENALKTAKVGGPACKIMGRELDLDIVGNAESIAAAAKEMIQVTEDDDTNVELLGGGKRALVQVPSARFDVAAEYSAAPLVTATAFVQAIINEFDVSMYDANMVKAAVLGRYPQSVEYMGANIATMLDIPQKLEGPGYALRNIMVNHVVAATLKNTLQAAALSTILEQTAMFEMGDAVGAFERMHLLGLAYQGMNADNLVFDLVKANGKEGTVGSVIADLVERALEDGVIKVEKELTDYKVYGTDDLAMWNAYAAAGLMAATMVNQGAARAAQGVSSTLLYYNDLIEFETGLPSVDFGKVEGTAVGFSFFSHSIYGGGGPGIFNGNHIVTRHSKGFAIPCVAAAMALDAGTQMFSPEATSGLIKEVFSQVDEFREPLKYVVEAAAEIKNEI", "T1 sequence (P11562 2-249 limits assumed)": "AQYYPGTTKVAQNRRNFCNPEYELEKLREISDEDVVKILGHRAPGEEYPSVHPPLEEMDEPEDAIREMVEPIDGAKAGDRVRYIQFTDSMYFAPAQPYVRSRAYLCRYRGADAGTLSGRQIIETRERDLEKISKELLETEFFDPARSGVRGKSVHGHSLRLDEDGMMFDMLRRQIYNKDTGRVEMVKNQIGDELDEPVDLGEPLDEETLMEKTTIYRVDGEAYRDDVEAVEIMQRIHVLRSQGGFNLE", "format": "biochemical, M. marburgensis", "conditions": "for Methane reduction: 0.1 µM 3-NOP vs no inhibitor"}, "MCR (MCR-I) [2]": {"target": "T1, MCR (MCR-I)", "format": "biochemical, M. marburgensis", "conditions": "15 min at room temperature"}, "[3]": {"system": "Methanobacterium bryantii", "test": "Growth/methane production of methanogen cultures", "format": "cell-based", "conditions": "after 2 days, maintained over 12 days", "procedure": "(§1) The methanogens outlined in table 3 were grown in 5 mL of the respective culture medium at 37°C in 15-mL Hungate tubes sealed with butyl rubber septum and aluminum seals. The 8 mL gas phase was 80% H2/20% CO2 at 2 x 10^5 Pa pressure. In the case of M. stadtmanae and M. barkeri H2 and methanol (100 mM) was the energy source. Methanogens growth was followed by CH4 production using a flame ionization-detector GC (0.5 ml of gas from headspace, manual injection in the GC (HP Hewlett 5890, Packard Series II, Waldbronn, Germany) using a 1 mL Sample-Lock® syringe (Hamilton, Nevada, USA). The concentration of CH4 was determined using a standard curve generated by injecting different volumes of 99.9 % pure CH4 prior to and after the injection of samples. Three consecutive 5 mL batches of incubations were conducted. In each batch the following treatments were used in triplicate: (i) blanks, only media; (ii) controls, cultures in the absence of inhibitor; (iii) 3-NOP added to a final concentration of 0.5 µM, 5 µM, 50 µM, 100 µM, 250 µM and 500 µM. 3-NOP was added on day 2 after culture inoculation with 0.5 mL of an actively growing culture. The growth was measured over 12 days every 2 days coinciding with new pressurization of headspace to 2 bar with 80:20 H2:CO2 gas mixture. […] Table 3: Methanogens"}, "[4]": {"system": "Methanobrevibacter millerae", "test": "Growth/methane production of methanogen cultures", "format": "cell-based", "conditions": "after 2 days, maintained over 12 days", "procedure": "as §1"}, "[5]": {"system": "Methanobrevibacter smithii", "test": "Growth/methane production of methanogen cultures", "format": "cell-based", "conditions": "after 2 days, maintained over 12 days", "procedure": "as §1"}, "Methanomicrobium mobile": {"system": "Methanomicrobium mobile", "test": "Growth/methane production of methanogen cultures", "format": "cell-based", "conditions": "after 2 days, maintained over 12 days", "procedure": "as §1"}, "Methanosarcina barkeri": {"system": "Methanosarcina barkeri", "test": "Growth/methane production of methanogen cultures", "format": "cell-based", "conditions": "H2 and methanol (100 mM), after 2 days, maintained over 12 days", "procedure": "as §1"}, "[6]": {"system": "Methanosphaera stadtmanae", "test": "Growth/methane production of methanogen cultures", "format": "cell-based", "conditions": "H2 and methanol (100 mM), after 2 days, maintained over 12 days", "procedure": "as §1"}, "[7]": {"system": "Methanothermobacter wolfeii", "test": "Growth/methane production of methanogen cultures", "format": "cell-based", "conditions": "after 2 days, maintained over 12 days", "procedure": "as §1"}}, "note": "Like-named read-outs stand apart in the source and are kept apart here."}
{"smiles": "O=[N+]([O-])OCCCO", "note": "[3-NOP, 3-Nitrooxypropanol]", "values": [{"measurement": "reduces the methane concentration and thus the MCR activity", "setting": "MCR (MCR-I) [1]; 0.1 µM 3-NOP", "value": "about 50%"}, {"measurement": "Methane reduction", "setting": "MCR (MCR-I) [1]; 3min", "value": -28, "unit": "%"}, {"measurement": "Methane reduction", "setting": "MCR (MCR-I) [1]; 6min", "value": -38, "unit": "%"}, {"measurement": "Methane reduction", "setting": "MCR (MCR-I) [1]; 9min", "value": -47, "unit": "%"}, {"measurement": "Methane concentration", "setting": "MCR (MCR-I) [1]; 0.1 µM 3-NOP, 3min, no inhibitor 0.095", "value": 0.068, "unit": "µM"}, {"measurement": "Methane concentration", "setting": "MCR (MCR-I) [1]; 0.1 µM 3-NOP, 6min, no inhibitor 0.132", "value": 0.082, "unit": "µM"}, {"measurement": "Methane concentration", "setting": "MCR (MCR-I) [1]; 0.1 µM 3-NOP, 9min, no inhibitor 0.163", "value": 0.086, "unit": "µM"}, {"measurement": "MCR activity was reduced", "setting": "MCR (MCR-I) [2]; 10 µM of 3-NOP", "value": 50, "unit": "%"}, {"measurement": "inhibition of the enzyme", "setting": "MCR (MCR-I) [2]; > 30 µM of 3-NOP", "value": "almost complete inhibition"}, {"measurement": "lowest concentration of 3-NOP able to significantly decrease the growth/ methane production (>50%)", "setting": "[3]", "value": 1, "unit": "µM"}, {"measurement": "lowest concentration of 3-NOP able to significantly decrease the growth/ methane production (>50%)", "setting": "[4]", "value": 2.5, "unit": "µM"}, {"measurement": "lowest concentration of 3-NOP able to significantly decrease the growth/ methane production (>50%)", "setting": "[5]", "value": 2.5, "unit": "µM"}, {"measurement": "lowest concentration of 3-NOP able to significantly decrease the growth/ methane production (>50%)", "setting": "Methanomicrobium mobile", "value": 50, "unit": "µM"}, {"measurement": "lowest concentration of 3-NOP able to significantly decrease the growth/ methane production (>50%)", "setting": "Methanosarcina barkeri", "value": 50, "unit": "µM"}, {"measurement": "lowest concentration of 3-NOP able to significantly decrease the growth/ methane production (>50%)", "setting": "[6]", "value": 5, "unit": "µM"}, {"measurement": "lowest concentration of 3-NOP able to significantly decrease the growth/ methane production (>50%)", "setting": "[7]", "value": "< 1", "unit": "µM"}]}
